The text below walks through data of patent US20220127281A1, “HETEROARYL COMPOUNDS THAT INHIBIT G12C MUTANT RAS PROTEINS” (AstraZeneca AB, priority 2017, published 2022).

Read-outs that look alike come from different tables or passages of the source.

Experiment [1] has as its target T1, GDP loaded biotinylated KRas^G12C protein (Homo sapiens, UniProt P01116, G12C).
T1 construct: biotin (biotinylated); made in house
The experiment is described as follows: KRasG12C functional assay. The experiment is classed as biochemical. The note with it: HTRF FRET readout of SOS-mediated nucleotide exchange and GST-Raf RBD binding, samples incubated for 4 hrs. The gist of the method: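 Biotinylated GDP-loaded KRasG12C exchange driven by 0.08 μM SOS with 0.6 μM GTPγS, read by HTRF between europium and XL665 as active KRas binds 20 nM GST-Raf RBD. Buffer: 20 mM HEPES pH 7.5, 5 mM MgCl2, 150 mM NaCl, 0.01% Tween 20. IC50 from normalised FRET dose-response fits.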

Experiment [2] has as its target T1, GDP loaded biotinylated KRas^G12C protein. As to the kind of experiment: KRasG12C mass spectrometry adducting assay. The experiment is classed as binding. As to conditions: test compound final concentration 10 μM, 4 μM KRasG12C, react for 4 hours. The gist of the method: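 GDP-loaded biotinylated KRasG12C incubated with compound in 20 mM HEPES pH 7.5, 5 mM MgCl2, 150 mM NaCl, then analysed by LC–QTOF MS.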

The mark [3] stands for this setting: read-out: KRasG12C functional assay IC50 value.
[4] abbreviates: KRasG12C functional assay IC50 value (μM).

T1 sequence (P01116 1-188 isoform P01116-2 G12C): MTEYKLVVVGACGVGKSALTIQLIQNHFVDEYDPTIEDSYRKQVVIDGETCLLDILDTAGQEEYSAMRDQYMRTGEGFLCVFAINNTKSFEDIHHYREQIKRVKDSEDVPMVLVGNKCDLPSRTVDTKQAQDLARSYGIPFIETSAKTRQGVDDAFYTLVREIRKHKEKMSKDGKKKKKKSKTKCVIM

In the case of `C=CC(=O)N1CCN2c3ncnc4cc(-c5c(O)cccc5Cl)c(Cl)c(c34)OC[C@@H]2C1` (single isomer, unassigned) [Example 15], the IC50 in experiment [1] (setting [3]) came to 22.7 µM. Further, the “KRasG12C M.S. Binding Mean adduct %” value in experiment [2] is given as 12%.

Regarding `C=CC(=O)N1CCN2c3ncnc4cc(-c5cccc6c5OCCOC6)c(Cl)c(c34)OC[C@@H]2C1` [Example 24, 1-[(8aS)-6-Chloro-5-(2,3-dihydro-5H-1,4-benzodioxepin-9-yl)-8a,9,11,12-tetrahydropyrazino[2′,1′:3,4][1,4]oxazepino[5,6,7-de]quinazolin-10(8H)-yl]prop-2-en-1-one], in experiment [1] (setting [3]), the IC50 worked out at 4.41 µM. Besides, the “KRasG12C M.S. Binding Mean adduct %” value in experiment [2] stood at 27%.

Consider `C=CC(=O)N1CCN2c3ncnc4cc(-c5c(O)cccc5F)c(Cl)c(c34)OC[C@@H]2C1` [Example 9, 1-[(8aS)-6-Chloro-5-(2-fluoro-6-hydroxyphenyl)-8a,9,11,12-tetrahydropyrazino-[2′,1′:3,4][1,4]oxazepino[5,6,7-de]quinazolin-10 (8H)-yl]prop-2-en-1-one], for which the IC50 in experiment [1] (setting [3]) was found to be 0.124 µM. In addition, the “KRasG12C M.S. Binding Mean adduct %” value in experiment [2] worked out at 100%.

For `C=CC(=O)N1CCN2c3ncnc4cc(-c5c(C)ccc6[nH]ncc56)c(Cl)c(c34)OCC[C@@H]2C1` (single isomer, unassigned) [Example 82], the half-inhibitory concentration (IC50) in experiment [1] (setting [3]) turned out to be 0.166 µM. Moreover, the “KRasG12C M.S. Binding Mean adduct %” value in experiment [2] worked out at 26%.

As to `C=CC(=O)N1CCN2c3ncnc4cc(-c5c(O)cccc5F)c(Cl)c(c34)OC[C@@H]2C1` (single isomer, unassigned) [Example 11], the IC50 in experiment [1] (setting [3]) stood at 0.097 µM. Further, the “KRasG12C M.S. Binding Mean adduct %” value in experiment [2] came out at 92%.

For `C=CC(=O)N1CCN2c3ncnc4cc(-c5c(C)ccc6[nH]ncc56)c(Cl)c(c34)OC[C@H]2C1` [Example 7, 1-[(8aR)-6-Chloro-5-(5-methyl-1H-indazol-4-yl)-8a,9,11,12-tetrahydropyrazino-[2′,1′:3,4][1,4]oxazepino[5,6,7-de]quinazolin-10 (8H)-yl]prop-2-en-1-one], the 50% inhibitory concentration (IC50) in experiment [1] (setting [4]) stood at 0.214 µM. In experiment [2], the “KRasG12C M.S. Binding Mean adduct %” value was determined as 95%.

For the compound `C=CC(=O)N1CCN2c3ncnc4cc(-c5ccc(F)cc5F)c(Cl)c(c34)OC[C@@H]2C1` [Example 66, 1-[(8aS)-6-Chloro-5-(2,4-difluorophenyl)-8a,9,11,12-tetrahydropyrazino[2′,1′:3,4][1,4]oxazepino[5,6,7-de]quinazolin-10(8H)-yl]prop-2-en-1-one], the IC50 in experiment [1] (setting [3]) was determined as 1.45 µM. Moreover, in experiment [2], the “KRasG12C M.S. Binding Mean adduct %” value worked out at 84%.

As to `C=CC(=O)N1CCN2c3ncnc4cc(-c5cccc6c5CN(C)CC6)c(Cl)c(c34)OC[C@@H]2C1` [Example 34, 1-[(8aS)-6-Chloro-5-(2-methyl-1,2,3,4-tetrahydroisoquinolin-8-yl)-8a,9,11,12-tetrahydropyrazino[2′,1′:3,4][1,4]oxazepino[5,6,7-de]quinazolin-10(8H)-yl]prop-2-en-1-one], in experiment [1] (setting [3]), the IC50 was 3.47 µM. Moreover, in experiment [2], the “KRasG12C M.S. Binding Mean adduct %” value is given as 8%.

Take `C=CC(=O)N1CCN2c3nc(N4CC(N(C)C)C4)nc4cc(-c5c(C)ccc6[nH]ncc56)c(Cl)c(c34)OC[C@@H]2C1` (single isomer, unassigned) [Example 76]: in experiment [1] (setting [3]), the IC50 was 22.4 µM. For the same compound, the “KRasG12C M.S. Binding Mean adduct %” value in experiment [2] was found to be 0%.

Regarding `C=CC(=O)N1CCN2c3ncnc4cc(-c5ccccc5O)c(Cl)c(c34)OC[C@@H]2C1` [Example 63, 1-[(8aS)-6-Chloro-5-(2-hydroxyphenyl)-8a,9,11,12-tetrahydropyrazino[2′,1′:3,4][1,4]oxazepino[5,6,7-de]quinazolin-10(8H)-yl]prop-2-en-1-one], in experiment [1] (setting [3]), the IC50 is 0.896 µM. The “KRasG12C M.S. Binding Mean adduct %” value in experiment [2] was 87%.

On to `C=CC(=O)N1CCN2c3ncnc4cc(-c5c(O)cccc5C#N)c(Cl)c(c34)OC[C@@H]2C1` (single isomer, unassigned) [Example 20], for which the IC50 in experiment [1] (setting [3]) turned out to be 0.191 µM. In addition, in experiment [2], the “KRasG12C M.S. Binding Mean adduct %” value stood at 100%.

Take `C=CC(=O)N1CCN2c3ncnc4cc(-c5cccc6cnn(C)c56)c(Cl)c(c34)OC[C@@H]2C1` [Example 39, 1-[(8aS)-6-Chloro-5-(1-methyl-1H-indazol-7-yl)-8a,9,11,12-tetrahydropyrazino[2′,1′:3,4][1,4]oxazepino[5,6,7-de]quinazolin-10(8H)-yl]prop-2-en-1-one]: the IC50 in experiment [1] (setting [3]) was found to be 0.803 µM. The “KRasG12C M.S. Binding Mean adduct %” value in experiment [2] came out at 79%.

`C=CC(=O)N1CCN2c3ncnc4cc(-c5c(C)ccc6[nH]ncc56)c(Cl)c(c34)OCC[C@@H]2C1` (single isomer, unassigned) [Example 81]: the IC50 in experiment [1] (setting [3]) came to 0.012 µM. For the same compound, the “KRasG12C M.S. Binding Mean adduct %” value in experiment [2] turned out to be 100%.

With `C=CC(=O)N1CCN2c3ncnc4cc(-c5c(C)ccc6[nH]ncc56)c(Cl)c(c34)OC[C@@H]2C1` [Example 1, 1-[(8aS)-6-Chloro-5-(5-methyl-1H-indazol-4-yl)-8a,9,11,12-tetrahydropyrazino-[2′,1′:3,4][1,4]oxazepino[5,6,7-de]quinazolin-10 (8H)-yl]-2-propen-1-one], the IC50 in experiment [1] (setting [4]) came out at 0.102 µM. For the same compound, the “KRasG12C M.S. Binding Mean adduct %” value in experiment [2] is given as 95%.

With `C=CC(=O)N1CCN2c3ncnc4cc(-c5ccccc5C)c(Cl)c(c34)OC[C@@H]2C1` [Example 41, 1-[(8aS)-6-Chloro-5-(2-methylphenyl)-8a,9,11,12-tetrahydropyrazino[2′,1′:3,4][1,4]oxazepino[5,6,7-de]quinazolin-10(8H)-yl]prop-2-en-1-one], the IC50 in experiment [1] (setting [3]) came out at 0.479 µM. Also, the “KRasG12C M.S. Binding Mean adduct %” value in experiment [2] is on record as 100%.

Take `C=CC(=O)N1CCN2c3ncnc4cc(-c5ccccc5CO)c(Cl)c(c34)OC[C@@H]2C1` [Example 65, 1-[(8aS)-6-Chloro-5-[2-(hydroxymethyl)phenyl]-8a,9,11,12-tetrahydropyrazino[2′,1′:3,4][1,4]oxazepino[5,6,7-de]quinazolin-10(8H)-yl]prop-2-en-1-one]: the IC50 in experiment [1] (setting [3]) came out at 3.46 µM. Besides, the “KRasG12C M.S. Binding Mean adduct %” value in experiment [2] was 49%.

As for `C=CC(=O)N1CCN2c3ncnc4cc(-c5cccc6[nH]ncc56)c(Cl)c(c34)OC[C@@H]2C1` [Example 61, 1-[(8aS)-6-Chloro-5-(1H-indazol-4-yl)-8a,9,11,12-tetrahydropyrazino[2′,1′:3,4][1,4]oxazepino[5,6,7-de]quinazolin-10(8H)-yl]prop-2-en-1-one], the half-inhibitory concentration (IC50) in experiment [1] (setting [3]) turned out to be 2.22 µM. Moreover, in experiment [2], the “KRasG12C M.S. Binding Mean adduct %” value was found to be 64%.

Consider `C=CC(=O)N1CCN2c3ncnc4cc(-c5cccc6ncoc56)c(Cl)c(c34)OC[C@@H]2C1` [Example 58, 1-[(8aS)-5-(1,3-Benzoxazol-7-yl)-6-chloro-8a,9,11,12-tetrahydropyrazino[2′,1′:3,4][1,4]oxazepino[5,6,7-de]quinazolin-10(8H)-yl]prop-2-en-1-one], for which the IC50 in experiment [1] (setting [3]) turned out to be 7.09 µM. Also, the “KRasG12C M.S. Binding Mean adduct %” value in experiment [2] came out at 42%.

For `C=CC(=O)N1CCN2c3ncnc4cc(-c5c(O)cccc5F)c(Cl)c(c34)OC[C@@H]2C1` (single isomer, unassigned) [Example 10], in experiment [1] (setting [3]), the IC50 came out at 0.244 µM. The “KRasG12C M.S. Binding Mean adduct %” value in experiment [2] worked out at 30%.

For `C=CC(=O)N1CCN2c3ncnc4cc(-c5c(O)cccc5C#N)c(Cl)c(c34)OC[C@@H]2C1` (single isomer, unassigned) [Example 19], the IC50 in experiment [1] (setting [3]) came to 41.8 µM. For the same compound, the “KRasG12C M.S. Binding Mean adduct %” value in experiment [2] is 0%.

Take `C=CC(=O)N1CCN2c3ncnc4cc(-c5cccc(CC#N)c5)c(Cl)c(c34)OC[C@@H]2C1` [Example 59, {3-[(8aS)-10-Acryloyl-6-chloro-8,8a,9,10,11,12-hexahydropyrazino[2′,1′:3,4][1,4]oxazepino[5,6,7-de]quinazolin-5-yl]phenyl}acetonitrile]: the IC50 in experiment [1] (setting [3]) was 5.85 µM. In experiment [2], the “KRasG12C M.S. Binding Mean adduct %” value is on record as 42%.
